Series [1] has as its target T1, bovine serum albumin (BSA) (Bos taurus, UniProt P02769).
T1 construct: purchased Millipore, USA
Briefly: Cannabis smoke bubbled through aqueous BSA solution, cannabinoids determined by HPLC (Example 1a). The class given is binding. To be noted: BSA in Hartmann's solution; FIG. 2A. Here is the method: Protein-bound cannabinoid was formed according to the following method. An aqueous albumin solution was prepared by adding 20 (mg)) of bovine serum albumin (BSA, from Millipore, USA) to 10 milliliters (ml) ml Hartmann's solution (B. Braun Melsungen AG, Germany). BSA was completely dissolved using a shaker (Heidolph POLYMAX 1040) at 50 revolutions per minute.
A cannabis-filled cigarette was formed using a cigarette paper containing 0.8 gr ground cannabis (provided by “Seach” Israel), from flowers and budding leaves. A Pasteur pipette was cut longitudinally at its wide end, and the cigarette was lodged in to the cut end. The narrow end of the pipette was attached to a syringe. The cigarette was lit in a fume hood, and cigarette smoke was collected in the syringe by pulling the syringe plunger. The smoke was then slowly released into the BSA solution by depressing the plunger. Approximately 350 ml of smoke-containing air was gently bubbled through the BSA solution.
As a control, a solution of 10 ml of Hartmann's solution was prepared without the addition of BSA and a similar procedure of cannabis smoke formation and bubbling was performed.
Samples having a volume of 3 ml of the BSA solution and the control solution were each inserted in to HPLC glass vials and the open vials were inserted into a vacuum oven for 24 hours at 37° Celsius.
The solid phase after the evaporation was crushed in to a fine powder using mortar and pestle. The powder was extracted using Methanol chloroform 9:1 extract solution, sonicated for 30 minutes, and was then filtered and added in to an HPLC testing tube.
HPLC was performed using an HP1050 AGILENT, DAD detector, XBridge C18 3.5 μm 4.6×150 mm column, and according to the following parameters: […]

Series [2] has as its target T2, BSA (Bos taurus, UniProt P02769). Briefly: Cannabis smoke/vapor passed through BSA/water/ethanol solution, cannabinoid profile (Example 1d). The settings on record: 33% ethanol, 48 hours incubation, washed. The class given is binding, bovine. Here is the method: (§1) To show which cannabinoid compounds are solubilized in processes using BSA versus organic solvents, cannabis from two different batches was smoked and or vaporized. Vapor was formed using a “volcano” vaporizer at a temperature of 210° C. The smoke/vapor was passed through either a BSA/water/ethanol solution described in example 1b, comprising 33% by volume ethanol or through a pure ethanol (99% ethanol) solution. Solutions were stirred using a magnetic stirrer and were incubated for 48 hours, during which time, most of the ethanol evaporated. One of the batches of cannabis was high in THC, and the other batch of cannabis was high in both THC and CBD.
The BSA/water/ethanol solution was washed after smoke or vapor was combined with it, and the amount of cannabinoids present was analyzed. The results of the comparison of relative concentration of cannabinoids (relative to total cannabinoid content) as expressed in percent (weight/weight), for a strain of cannabis high in THC are shown in the table below.

Series [3] in a line: Cannabis smoke/vapor passed through pure ethanol, cannabinoid profile (Example 1d). The class given is physicochemical. The settings on record: for relative concentration of cannabinoids (relative to total cannabinoid content), Vapor passed through ethanol: vapor at 210° C. The protocol: as §1
The subject of another series is bovine γ-globulin. The series can be described thus: Cannabis vapor streamed through protein solution, cannabinoids adsorbed (Example 1f). To be noted: vapor of cannabis high in CBD; 1 mg/ml protein, ethanol:water 1:2, 30° C., 24 hours. The format is binding. The protocol:
(§2) The protein solutions were formed using ethanol and water in a 1:2 ratio. The solutions were incubated at 30° C. for 24 hours.

For another series, the target named is T3, ovalbumin (hen) (Gallus gallus, UniProt P01012).
T3 sequence (P01012 1-386): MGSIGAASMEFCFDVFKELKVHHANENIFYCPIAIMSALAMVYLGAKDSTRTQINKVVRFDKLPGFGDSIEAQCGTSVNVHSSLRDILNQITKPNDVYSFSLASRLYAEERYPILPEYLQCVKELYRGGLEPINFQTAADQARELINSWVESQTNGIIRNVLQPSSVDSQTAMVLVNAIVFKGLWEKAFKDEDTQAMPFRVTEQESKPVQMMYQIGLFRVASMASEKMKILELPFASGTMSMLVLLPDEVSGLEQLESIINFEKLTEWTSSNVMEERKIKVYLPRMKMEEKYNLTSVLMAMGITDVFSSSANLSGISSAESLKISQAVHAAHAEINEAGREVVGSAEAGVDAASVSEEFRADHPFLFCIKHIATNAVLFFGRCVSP
The description is as above. The class given is binding. The settings on record: vapor of cannabis high in CBD; 1 mg/ml protein, ethanol:water 1:2, 30° C., 24 hours. Here is the method:
as §2

Series [4] deals with T4, rice recombinant human serum albumin (HSA) (Homo sapiens, UniProt P02768).
T4 construct: host or cells: rice (recombinant expression host)
Described as above. The format is binding. To be noted: vapor of cannabis high in CBD; 1 mg/ml protein, ethanol:water 1:2, 30° C., 24 hours. The protocol:
as §2

Series [5] can be described thus: Cannabinoid content of cannabis extract (Example 2a). The format is physicochemical. The settings on record: methanol/chloroform 9:1 cannabis extract. Here is the method:
(§3) Cannabis extract was prepared as follows: In short, cannabis plant matter is dried, ground and homogenized to form ground cannabis. The ground cannabis is extracted with methanol/chloroform (volume/volume ratio of 9:1). Sonication and filtration is then performed. Identity of cannabinoids is determined by HPLC by evaporation, dissolution in an appropriate solvent.
(§4) Drying of the cannabis plant matter occurs under high vacuum at about 37±2° C. for about 24 hours and then ground to form a fine powder. 200 mg of ground powder is combined with 10 ml of methanol/chloroform, and sonicated in an ice bath for 30 minutes at maximum power. The supernatant is then filtered through a 0.2 micron filter.
(§5) A sample of the cannabis extract was analyzed for content of cannabinoids. The cannabis extract was then combined with albumin solution having 20% ethanol at 10 mg/ml (BSA) and incubated for 2 hours at room temperature.

Series [6] addresses T2, BSA. Briefly: Cannabis extract combined with albumin solution, cannabinoids adsorbed to BSA (Example 2a). The format is binding, bovine. The settings on record: albumin solution 10 mg/ml (BSA) with 20% ethanol, 2 hours at room temperature. Here is the method:
as §3, §4, §5

The target of a further series is albumin (BSA) (Bos taurus, UniProt P02769). Briefly: Ethanolic cannabinoid solution mixed with aqueous albumin, protein-bound cannabinoid quantified (Example 2b). The format is binding, bovine. Details: protein-bound cannabinoid quantified, Vapor: unit not given beside the values. The settings on record: 100 microliters ethanolic solution + 500 microliters 5 mg/ml BSA, 30° C., 12 hours, non-adsorbed cannabinoids separated. The protocol: 100 microliters of ethanolic cannabinoid solution from cannabis vapor and cannabis smoke were each mixed with 500 microliters of aqueous albumin solution that had been prepared at a concentration of 5 mg albumin (BSA)/ml. The aqueous albumin solution combined with the ethanolic cannabinoid solution was incubated at 30° C. for 12 hours in open tubes. After 12 hours, the tubes were mixed and centrifuged, and non-adsorbed cannabinoids were separated from the solution. Concentrated protein-bound cannabinoid was dried and quantified as described below.

The conditions of series [7]: 3 g high THC strain; 200 ml ethanol concentrated to about 3 ml.
Where [8] appears, read: strain of cannabis high in CBD and THC.

T2 sequence (P02769 25-607): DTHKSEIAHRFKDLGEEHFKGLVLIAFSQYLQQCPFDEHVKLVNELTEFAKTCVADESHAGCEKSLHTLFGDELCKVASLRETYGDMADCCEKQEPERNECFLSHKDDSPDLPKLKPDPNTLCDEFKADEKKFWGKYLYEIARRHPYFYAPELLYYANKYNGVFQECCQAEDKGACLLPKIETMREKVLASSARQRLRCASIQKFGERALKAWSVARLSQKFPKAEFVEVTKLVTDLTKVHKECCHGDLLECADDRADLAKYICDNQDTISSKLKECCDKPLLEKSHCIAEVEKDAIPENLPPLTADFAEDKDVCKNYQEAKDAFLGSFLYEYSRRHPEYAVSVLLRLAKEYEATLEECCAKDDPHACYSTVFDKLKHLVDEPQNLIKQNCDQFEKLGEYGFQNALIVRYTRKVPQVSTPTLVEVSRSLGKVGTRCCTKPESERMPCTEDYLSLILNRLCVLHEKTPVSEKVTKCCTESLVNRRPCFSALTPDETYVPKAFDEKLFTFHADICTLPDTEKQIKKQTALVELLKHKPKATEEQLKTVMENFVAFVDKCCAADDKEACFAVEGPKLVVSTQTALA
albumin (BSA), sequence (P02769 25-607): as above
T4 sequence (P02768 25-609): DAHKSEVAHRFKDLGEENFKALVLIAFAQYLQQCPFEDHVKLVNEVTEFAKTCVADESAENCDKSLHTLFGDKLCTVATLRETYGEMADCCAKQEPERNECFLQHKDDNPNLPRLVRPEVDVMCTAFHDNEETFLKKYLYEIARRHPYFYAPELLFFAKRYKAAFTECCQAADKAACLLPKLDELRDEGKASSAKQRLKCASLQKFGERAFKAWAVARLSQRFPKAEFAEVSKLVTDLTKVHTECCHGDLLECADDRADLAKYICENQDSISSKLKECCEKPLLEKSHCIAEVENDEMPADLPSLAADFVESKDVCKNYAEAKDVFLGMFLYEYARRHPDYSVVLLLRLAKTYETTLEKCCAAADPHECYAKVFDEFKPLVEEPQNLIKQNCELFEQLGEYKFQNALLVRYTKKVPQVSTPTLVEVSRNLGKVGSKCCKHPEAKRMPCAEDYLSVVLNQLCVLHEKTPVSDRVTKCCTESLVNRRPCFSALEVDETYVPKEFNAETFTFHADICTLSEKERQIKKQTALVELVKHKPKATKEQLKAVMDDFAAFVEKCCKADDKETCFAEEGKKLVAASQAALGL
T1 sequence (P02769 25-607): as the sequence (P02769 25-607) above

Consider `CCCCCc1cc(O)c2c(c1)OC(C)(C)c1ccc(C)cc1-2` [CBN, cannabinol], for which the “active cannabinoids found by HPLC in BSA aqueous solution after cannabis smoke was introduced” value in series [1] is reported as “dissolved in the solution”. For the same molecule, at BSA [2] (setting [8]), the “relative concentration of cannabinoids (relative to total cannabinoid content), Smoke passed through BSA/water/ethanol” value is 0.0 percent (weight/weight) and the “relative concentration of cannabinoids (relative to total cannabinoid content), Vapor passed through BSA/water/ethanol” value is recorded as 0.0 percent (weight/weight). On BSA [2] (strain of cannabis high in THC), the “relative concentration of cannabinoids (relative to total cannabinoid content), Smoke passed through BSA/water/ethanol” value is 0.0 percent (weight/weight). In addition, in [3] (setting [8]), the “relative concentration of cannabinoids (relative to total cannabinoid content), Smoke passed through ethanol” value is reported as 1.6 percent (weight/weight) and the “relative concentration of cannabinoids (relative to total cannabinoid content), Vapor passed through ethanol” value was 0.0 percent (weight/weight). Also, in [3] (strain of cannabis high in THC), the “relative concentration of cannabinoids (relative to total cannabinoid content), Smoke passed through ethanol” value is given as 1.7 percent (weight/weight) and the “relative concentration of cannabinoids (relative to total cannabinoid content), Vapor passed through ethanol” value is on record as 1.6 percent (weight/weight). The “percentage of each cannabinoid relative to total cannabinoids adsorbed to protein, Bovine γ-globulin” value in the series with bovine γ-globulin is reported as 0 percentage. Further, at ovalbumin (hen), the “percentage of each cannabinoid relative to total cannabinoids adsorbed to protein, Ovalbumin” value was found to be 0 percentage. Also, in series [4], the “percentage of each cannabinoid relative to total cannabinoids adsorbed to protein, Rice recombinant HSA” value was determined as 0 percentage. Besides, the “percentage of each cannabinoid relative to total cannabinoids, Extract” value in series [5] is reported as 2 percentage. In addition, the “percentage of each cannabinoid relative to total cannabinoids adsorbed to protein, Adsorbed to BSA after extract combined with BSA solution” value on BSA [6] is recorded as 2 percentage. Besides, on albumin (BSA), the “protein-bound cannabinoid quantified, Smoke” value was 6.5 and the “protein-bound cannabinoid quantified, Vapor” value is reported as 4.855. In series [7], the “amount of cannabinoids dissolved in ethanol, Smoke” value was found to be 276.856 micrograms/ml and the “amount of cannabinoids dissolved in ethanol, Vapor” value was 135.5254 micrograms/ml.
As to `CCCCCc1cc2c(c(O)c1C(=O)O)[C@@H]1C=C(C)CC[C@H]1C(C)(C)O2` [THCA, tetrahydrocannabinoic acid], in [1], the “active cannabinoids found by HPLC in BSA aqueous solution after cannabis smoke was introduced” value is recorded as “dissolved in the solution”. Moreover, on BSA [2] (setting [8]), the “relative concentration of cannabinoids (relative to total cannabinoid content), Smoke passed through BSA/water/ethanol” value is given as 5.3 percent (weight/weight) and the “relative concentration of cannabinoids (relative to total cannabinoid content), Vapor passed through BSA/water/ethanol” value is 0.0 percent (weight/weight). Also, the “relative concentration of cannabinoids (relative to total cannabinoid content), Smoke passed through BSA/water/ethanol” value at BSA [2] (strain of cannabis high in THC) is 9.3 percent (weight/weight). Also, in series [3] (setting [8]), the “relative concentration of cannabinoids (relative to total cannabinoid content), Smoke passed through ethanol” value was 0.7 percent (weight/weight) and the “relative concentration of cannabinoids (relative to total cannabinoid content), Vapor passed through ethanol” value was 0.3 percent (weight/weight). In series [3] (strain of cannabis high in THC), the “relative concentration of cannabinoids (relative to total cannabinoid content), Smoke passed through ethanol” value is given as 0.9 percent (weight/weight) and the “relative concentration of cannabinoids (relative to total cannabinoid content), Vapor passed through ethanol” value is 1.1 percent (weight/weight). Further, the “percentage of each cannabinoid relative to total cannabinoids adsorbed to protein, Bovine γ-globulin” value in the series on bovine γ-globulin was 100 percentage. Moreover, on ovalbumin (hen), the “percentage of each cannabinoid relative to total cannabinoids adsorbed to protein, Ovalbumin” value was 0 percentage. Moreover, in series [4], the “percentage of each cannabinoid relative to total cannabinoids adsorbed to protein, Rice recombinant HSA” value is on record as 0 percentage. For the same molecule, in series [5], the “percentage of each cannabinoid relative to total cannabinoids, Extract” value stood at 22 percentage. Besides, the “percentage of each cannabinoid relative to total cannabinoids adsorbed to protein, Adsorbed to BSA after extract combined with BSA solution” value at BSA [6] is on record as 29 percentage. For the same molecule, at albumin (BSA), the “protein-bound cannabinoid quantified, Smoke” value came to 2.16 and the “protein-bound cannabinoid quantified, Vapor” value was 4.26. In [7], the “amount of cannabinoids dissolved in ethanol, Smoke” value was 83.765 micrograms/ml and the “amount of cannabinoids dissolved in ethanol, Vapor” value amounted to 72.8432 micrograms/ml.

The values are drawn from patent publication US12161723B2, “Water-based cannabinoid and opioid compositions” (DAY THREE LABS MAN[…]., priority 2014, dated 2024).
